Measured values published in patent publication US20140275201A1, “IDENTIFICATION OF CANCER STEM CELL MARKERS AND USE OF […] TO TREAT CANCER” (BOARD OF REGENTS, THE UNIVERSITY OF TEXAS SYSTEM, priority 2013, published 2014).

How the values were obtained:
[1] = system: HMLER-FOXC2 cells; assay: Cell growth in monolayer cultures with sunitinib, HMLER-FOXC2; assay type: cell-based, human; conditions: sunitinib 10 μM (FIG. 7A), method says 2.5 μM, six days
Protocol: (§1) FIG. 7: Sunitinib inhibits the growth and metastasis of FOXC2-expressing tumors. FIG. 7A: Quantification of HMLER-Vector and HMLER-FOXC2 cell viability in the presence of sunitinib (10 μM) relative to vehicle (DMSO). N=3; error bars indicate SEM. *P<0.05. FIG. 7B: In vitro quantification of mammospheres formed by 1000 HMLER-FOXC2 and HMLER-Snail cells in the presence of sunitinib (10 μM) or DMSO. N=3; error bars indicate SEM. *P<0.05. FIG. 7C: Tumor volume of HMLER-FOXC2 cells injected into the mammary fat pad of NOD/SCID mice and treated with 40 mg/kg of sunitinib or vehicle (N=9) daily for the indicated number of days. Top line represents Vehicle; bottom line represents Sunitinib. […] FIGS. 7E and F: Thirty days following initiation of sunitinib or vehicle treatment, mice were euthanized and the organs, lung (FIG. 7E) and brain (FIG. 7F), were dissected and analyzed for metastatic tumor burden using bioluminescence imaging. The luminescent signal of tumor cells is represented as the total photon flux detected in each organ from individual mice with the bar indicating the average. ***P<0.001, **P<0.05 compared to the vehicle control group.
To determine the effects of sunitinib on cell growth, 2×10^5 cells were plated in a 6-well tissues culture dish. […] On the sixth day of treatment, viable cells per well was quantified using a Beckman-Coulter Vi-Cell Viability Analyzer.

[2] = system: HMLER-FOXC2 cells; assay: Mammosphere assay, HMLER-FOXC2; assay type: cell-based, human; conditions: HMLER-FOXC2, 1000 cells, sunitinib 10 μM, 7 days
Protocol: as §1
(§2) Mammosphere cultures were performed as described (Dontu et al., 2003), with the exception that culture medium contained 1% methylcellulose to reduce cell aggregation (Mani et al., 2008). […] Spheres were quantified after 7 days.

[3] = system: HMLER-Snail cells; assay: Mammosphere assay, HMLER-Snail; assay type: cell-based, human; conditions: 1000 cells, sunitinib 10 μM, 7 days
Protocol: as §1, §2

[4] = system: HMLE-Snail and SUM159 cells expressing shControl or shFOXC2; assay: MTS cell viability assay, cells expressing endogenous FOXC2; assay type: cell-based, human; conditions: cells expressing endogenous FOXC2 (shControl) versus shFOXC2, 96 hours, increasing concentrations
Protocol: (§3) FIGS. 12A and B: Quantification of HMLE-Snail (FIG. 12A) and SUM159 (FIG. 12B) cell viability expressing either shControl or shFOXC2, following culture for 96 hours in increasing concentrations of sunitinib. Cell viability was assessed using an MTS assay. Top lines represent shFOXC2; bottom lines represent shControl. FIG. 12C: In vitro quantification of mammospheres formed by cells described above grown in the presence of sunitinib. Data represents the number of mammospheres formed per 1000 cells seeded after 7 days of culture. For each cell type, the left column represents Vehicle and the right column represents Sunitinib. Error bars indicate SEM. *P<0.05.

[5] = system: HMLE-Snail and SUM159 cells expressing shControl or shFOXC2; assay: Mammosphere assay, cells expressing endogenous FOXC2; assay type: cell-based, human; conditions: cells expressing endogenous FOXC2 (shControl) versus shFOXC2, 1000 cells seeded, 7 days
Protocol: as §3
Mammosphere cultures were performed as described (Dontu et al., 2003), with the exception that culture medium contained 1% methylcellulose to reduce cell aggregation (Mani et al., 2008). One thousand cells were plated per well into 96-well plates and cultured for 7-10 days, with fresh medium replaced every 3 days. Following incubation, mammospheres were photographed and spheres with a diameter greater than 75 μm were counted. To test the effects of sunitinib, 1000 cells were plated in 96-well low attachment plate in 100 μl mammosphere media. At 24 hours and 96 hours, 100 μl of mammosphere media containing 10 μM sunitinib or vehicle control (DMSO) was added to each well. Spheres were quantified after 7 days.

[6] = system: HMLER-FOXC2 tumors; assay: Orthotopic HMLER-FOXC2 xenograft in the mammary fat-pad; assay type: in vivo, NOD/SCID mice
Protocol: FIG. 7: Sunitinib inhibits the growth and metastasis of FOXC2-expressing tumors. FIG. 7A: Quantification of HMLER-Vector and HMLER-FOXC2 cell viability in the presence of sunitinib (10 μM) relative to vehicle (DMSO). N=3; error bars indicate SEM. *P<0.05. FIG. 7B: In vitro quantification of mammospheres formed by 1000 HMLER-FOXC2 and HMLER-Snail cells in the presence of sunitinib (10 μM) or DMSO. N=3; error bars indicate SEM. *P<0.05. FIG. 7C: Tumor volume of HMLER-FOXC2 cells injected into the mammary fat pad of NOD/SCID mice and treated with 40 mg/kg of sunitinib or vehicle (N=9) daily for the indicated number of days. Top line represents Vehicle; bottom line represents Sunitinib. FIG. 7D: Event-free survival of mice with orthotopic HMLER-FOXC2 xenografts treated daily with sunitinib (40 mg/kg, N=7) or vehicle (N=10). Mice were euthanized once tumors reached 1.5 cm^3. Bottom line represents Vehicle; top line represents Sunitinib. FIGS. 7E and F: Thirty days following initiation of sunitinib or vehicle treatment, mice were euthanized and the organs, lung (FIG. 7E) and brain (FIG. 7F), were dissected and analyzed for metastatic tumor burden using bioluminescence imaging. The luminescent signal of tumor cells is represented as the total photon flux detected in each organ from individual mice with the bar indicating the average. ***P<0.001, **P<0.05 compared to the vehicle control group.
To ascertain the effects of sunitinib on HMLER-FOXC2 tumor growth and animal survival, 1×10^6 firefly luciferase-labeled HMLER-FOXC2 cells were injected into the mammary fat-pad of NOD/SCID mice as described above. After 24 hours, the mice were treated 5 days a week with 40 mg/kg sunitinib or vehicle (n=9) by oral gavage. Animals were sacrificed once the tumors reached 1.5 cm^3 or 30 days following injection and the dissected organs were immediately analyzed for luciferase activity.

SMILES: CCN(CC)CCNC(=O)c1c(C)[nH]c(/C=C2\C(=O)Nc3ccc(F)cc32)c1C [sunitinib]
- cell growth (cell viability relative to vehicle DMSO) [1]: specifically inhibit the cell growth
- decrease of mammosphere formation compared to vehicle (DMSO) treated cells [2]: > 8 fold
- decrease of mammosphere formation compared to vehicle (DMSO) treated cells [3]: > 20 fold
- sensitivity to sunitinib by MTS assay [4]: increased sensitivity
- sensitivity to sunitinib by reduction in mammosphere formation [5]: increased sensitivity
- primary tumor growth (tumor volume) ([6]; 40 mg/kg sunitinib by oral gavage versus vehicle, NOD/SCID mice): reduced primary tumor growth
- metastatic burden in brain (photon counts, bioluminescence) ([6]; 40 mg/kg sunitinib oral versus vehicle, thirty days after start of treatment, dissected brain): significantly reduced metastatic burden
- metastatic burden in lungs (photon counts, bioluminescence) ([6]; 40 mg/kg sunitinib oral versus vehicle, thirty days after start of treatment, dissected lungs): significantly reduced metastatic burden
- event-free survival ([6]; 40 mg/kg sunitinib oral versus vehicle, mice euthanized once tumors reached 1.5 cm^3): extended event-free survival
